Read-outs that look alike come from different tables or passages of the source.
Legend:
EGFR = biological target: T1, EGFR (Homo sapiens, UniProt P00533); assay: Enzyme inhibitory activity on EGFR (time resolution fluorescence, biotinylated poly-Glu-Tyr substrate); assay type: biochemical
T1 construct: purchased Carna Biosciences, Inc; host or cells: insect cell expression system
Experimental: (§1) Enzyme Inhibitory Activity of Test Compound on EGFR and HER2
(§2) EGFR and HER2 purified from an insect cell expression system, and a biotinylated substrate (synthetic peptide of glutamic acid:tyrosine=4:1) were added to a 384-well plate with ATP added thereto, and an enzyme reaction was performed at room temperature. After completion of the enzyme reaction, an anti-phosphorylated tyrosine antibody labeled with europium and streptavidin labeled with alphycocyanine were added, and a phosphorylated tyrosine residue was quantified by a time resolution fluorescence method.
(§3) A test compound was adjusted to 10 mM using DMSO.
(§4) Further, using 10% DMSO solution, a 1 mM solution was prepared, and this was regarded as a maximum concentration point.
(§5) As a dilution series, a 4-fold dilution series was prepared to a 10 stage.
(§6) As a buffer, TBS containing 10 mM MgCl2, 5 mM MnCl2, 0.2 mM Na3VO4, and 0.1% BSA was used.
(§7) As EGFR and HER2 enzymes, those purified from an insect cell expression system were purchased from Carna Biosciences, Inc.
An EGFR enzyme solution was adjusted to 250 ng/ml using a buffer.
(§8) As a substrate, biotinylated poly-Glu-Tyr (4:1, manufactured by CISbio) was used. A concentration was adjusted to 3.125 μg/ml using the above buffer.
An ATP concentration on study of the EGFR enzyme was adjusted to 125 μM using the buffer.
(§9) For preparing a detection reagent, TBS containing 30 mM EDTA, 0.8M KF and 0.1% BSA was used.
(§10) An anti-phosphorylated tyrosine antibody labeled with europium, PT-66K (CISbio) was adjusted to 195 ng/ml, and streptavidin labeled with alphycocyanine, SA-XL (CISbio) was adjusted to 5 μg/ml.
(§11) As an assay plate, a 384-well plate was used. Per one well, 1.1 μl of a test compound, 4 μl of a substrate solution, and 4 μl of an enzyme solution were added, and 2 μl of an ATP solution was added to initiate an enzyme reaction. The enzyme reaction was performed at room temperature for 60 minutes, and 10 μl of a detection reagent was added to complete the reaction. One hour after completion of the reaction, time resolution fluorescent measurement was performed.

BT-474 = assay: In vitro cell proliferation inhibition, WST assay; assay type: cell-based, human; conditions: BT-474 cells, cultured for 3 days, read-out: BT-474 (nM) proliferation inhibitory activity (IC50 value)
Experimental: Test of In Vitro Cell Proliferation Inhibition of Test Compound
As a human-derived cancer cell strain, BT-474 was used. Cells were all cultured in a 37° C., 5% CO2 incubator in a medium in which 10% bovine fetal serum (ICN) and 50 units ml penicillin/60 μg/ml streptomycin solution (GIBCO) were added to Dulbecco's Modified Essential Medium (DMEM, Nacalai Tesque, Inc).

HER2 = biological target: T2, HER2 (Homo sapiens, UniProt P04626); assay: Enzyme inhibitory activity on HER2 (time resolution fluorescence, biotinylated poly-Glu-Tyr substrate); assay type: biochemical
T2 construct: purchased Carna Biosciences, Inc; host or cells: insect cell expression system
T2 sequence (P04626 23-1255): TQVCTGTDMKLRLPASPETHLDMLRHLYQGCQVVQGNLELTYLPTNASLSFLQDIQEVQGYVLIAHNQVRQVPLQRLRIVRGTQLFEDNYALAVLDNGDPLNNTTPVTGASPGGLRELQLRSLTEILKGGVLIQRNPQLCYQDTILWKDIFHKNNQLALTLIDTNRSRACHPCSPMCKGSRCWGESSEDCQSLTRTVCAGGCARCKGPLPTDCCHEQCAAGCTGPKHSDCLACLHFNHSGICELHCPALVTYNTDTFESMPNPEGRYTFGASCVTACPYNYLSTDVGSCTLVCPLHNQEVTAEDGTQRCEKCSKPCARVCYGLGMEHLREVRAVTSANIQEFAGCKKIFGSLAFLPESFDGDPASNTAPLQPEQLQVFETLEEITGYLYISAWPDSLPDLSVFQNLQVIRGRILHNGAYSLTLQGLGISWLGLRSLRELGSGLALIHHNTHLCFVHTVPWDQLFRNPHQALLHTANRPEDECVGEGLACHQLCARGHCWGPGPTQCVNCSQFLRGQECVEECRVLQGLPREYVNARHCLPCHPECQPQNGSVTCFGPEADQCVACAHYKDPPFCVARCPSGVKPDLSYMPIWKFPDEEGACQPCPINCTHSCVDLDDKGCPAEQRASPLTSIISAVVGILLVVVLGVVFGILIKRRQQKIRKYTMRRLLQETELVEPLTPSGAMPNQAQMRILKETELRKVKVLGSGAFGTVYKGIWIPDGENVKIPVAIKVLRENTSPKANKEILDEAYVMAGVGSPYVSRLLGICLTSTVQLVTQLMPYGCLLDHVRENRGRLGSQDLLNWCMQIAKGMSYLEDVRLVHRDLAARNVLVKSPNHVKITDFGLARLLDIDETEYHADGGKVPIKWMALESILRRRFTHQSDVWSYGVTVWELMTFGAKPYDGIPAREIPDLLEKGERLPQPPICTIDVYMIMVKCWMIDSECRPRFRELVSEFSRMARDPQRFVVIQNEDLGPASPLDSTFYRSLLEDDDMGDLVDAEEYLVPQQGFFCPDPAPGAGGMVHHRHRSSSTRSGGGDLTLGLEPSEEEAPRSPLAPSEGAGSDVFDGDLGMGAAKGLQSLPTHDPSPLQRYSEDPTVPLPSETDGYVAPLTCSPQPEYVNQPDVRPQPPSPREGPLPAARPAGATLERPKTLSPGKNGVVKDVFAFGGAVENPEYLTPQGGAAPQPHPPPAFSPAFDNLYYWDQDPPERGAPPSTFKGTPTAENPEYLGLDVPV
Experimental: as §1, §2, §3, §4, §5, §6, §7
HER2 kinase was adjusted to 1000 ng/ml using a buffer.
as §8
An ATP concentration on study of the HER2 enzyme was adjusted to 290 μM.
as §9, §10, §11

[1] = EGFR purified from insect cell expression system, ATP solution 125 μM, room temperature, 60 minutes
[2] = HER2 purified from insect cell expression system, ATP solution 290 μM, room temperature, 60 minutes
[3] = enzyme reaction at room temperature for 60 minutes

T1 sequence (P00533 25-1210): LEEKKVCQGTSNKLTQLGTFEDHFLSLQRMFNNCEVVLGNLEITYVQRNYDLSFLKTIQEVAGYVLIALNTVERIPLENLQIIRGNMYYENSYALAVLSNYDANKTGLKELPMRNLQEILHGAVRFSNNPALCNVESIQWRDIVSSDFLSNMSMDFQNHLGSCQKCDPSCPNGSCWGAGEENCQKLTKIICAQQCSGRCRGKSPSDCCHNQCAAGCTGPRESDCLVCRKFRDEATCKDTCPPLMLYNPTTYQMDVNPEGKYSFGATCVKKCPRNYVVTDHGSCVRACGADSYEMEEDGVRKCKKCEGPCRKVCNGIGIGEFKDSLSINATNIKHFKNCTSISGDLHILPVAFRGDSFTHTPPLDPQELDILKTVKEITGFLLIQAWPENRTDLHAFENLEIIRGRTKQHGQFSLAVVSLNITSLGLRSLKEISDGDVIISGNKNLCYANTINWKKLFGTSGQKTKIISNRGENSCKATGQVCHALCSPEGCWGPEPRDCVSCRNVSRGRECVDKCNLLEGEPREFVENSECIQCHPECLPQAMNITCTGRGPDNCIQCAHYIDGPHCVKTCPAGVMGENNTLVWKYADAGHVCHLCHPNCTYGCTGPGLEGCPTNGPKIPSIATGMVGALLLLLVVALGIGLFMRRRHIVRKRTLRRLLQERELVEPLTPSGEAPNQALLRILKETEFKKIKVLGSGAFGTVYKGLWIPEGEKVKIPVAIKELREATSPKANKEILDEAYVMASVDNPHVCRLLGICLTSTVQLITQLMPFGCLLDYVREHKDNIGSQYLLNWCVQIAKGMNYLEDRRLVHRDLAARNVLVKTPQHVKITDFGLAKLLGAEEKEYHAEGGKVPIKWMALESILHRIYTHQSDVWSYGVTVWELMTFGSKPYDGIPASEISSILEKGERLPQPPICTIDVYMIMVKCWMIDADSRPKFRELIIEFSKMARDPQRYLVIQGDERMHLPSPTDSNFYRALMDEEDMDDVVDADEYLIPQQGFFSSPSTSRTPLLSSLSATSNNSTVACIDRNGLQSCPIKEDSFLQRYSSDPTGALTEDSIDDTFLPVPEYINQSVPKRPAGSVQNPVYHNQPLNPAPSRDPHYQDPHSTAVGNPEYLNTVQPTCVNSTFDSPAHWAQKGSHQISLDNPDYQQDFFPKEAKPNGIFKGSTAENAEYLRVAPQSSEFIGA

| SMILES | IC50 (EGFR; [1]) [nM] | IC50 (BT-474) [nM] | IC50 (HER2; [2]) [nM] | IC50 (BT-474; Homo sapiens, BT-474, 72 h) [nM] | IC50 (EGFR; [3]) [nM] | IC50 (HER2; [3]) [nM] |
| --- | --- | --- | --- | --- | --- | --- |
| CC#C/C(=N\OC[C@H]1NCCO[C@@H]1C)c1ccc2ncnc(Nc3ccc(OCc4cccc(F)c4)c(Cl)c3)c2c1 [VIII-107] | 150 | 23 | 135 |  |  |  |
| CC#CC(=NOCC1CN(C)CCN1C)c1ccc2ncnc(Nc3ccc(OCc4cccc(F)c4)c(Cl)c3)c2c1 (stereo not drawn) [VIII-108] | 53 |  | 56 | 31 |  |  |
| CC#C/C(=N\OC[C@@H]1CNC[C@@H](C)O1)c1ccc2ncnc(Nc3ccc(OCc4cccc(F)c4)c(Cl)c3)c2c1 [VIII-110] | 29 | 21 | 35 |  |  |  |
| CC#C/C(=N\OC[C@H]1CNCC(=O)N1)c1ccc2ncnc(Nc3ccc(OCc4cccc(F)c4)c(Cl)c3)c2c1 [VIII-111] | 37 | 15 | 55 |  |  |  |
| CC#C/C(=N\OC[C@H]1CN(CCO)CCN1)c1ccc2ncnc(Nc3ccc(OCc4cccc(F)c4)c(Cl)c3)c2c1 [VIII-112] | 11 | 8 | 13 |  |  |  |
| CC#C/C(=N\OC[C@H]1CNCCO1)c1ccc2ncnc(Nc3ccc(OCc4cccc(F)c4)c(Cl)c3)c2c1 [VIII-114] | 57 | 37 | 69 |  |  |  |
| CC#C/C(=N\OC[C@H]1CNC[C@@H](C)O1)c1ccc2ncnc(Nc3ccc(OCc4cccc(F)c4)c(Cl)c3)c2c1 [VIII-116] | 37 | 50 | 25 |  |  |  |
| CC#C/C(=N\OC[C@H]1CS(=O)(=O)CCN1)c1ccc2ncnc(Nc3ccc(OCc4cccc(F)c4)c(Cl)c3)c2c1 [VIII-118] | 197 | 22 | 223 |  |  |  |
| CC#C/C(=N\OC[C@@H]1CNCC(=O)N1)c1ccc2ncnc(Nc3ccc(OCc4cccc(F)c4)c(Cl)c3)c2c1 [VIII-119] | 81 | 31 | 77 |  |  |  |
| CNCCO/N=C(\C#CCOC)c1ccc2ncnc(Nc3ccc(OCc4cccc(F)c4)c(Cl)c3)c2c1 [VIII-123] |  | 31 |  |  | 24 | 38 |
| COCC#C/C(=N\OCCN1CCCC1)c1ccc2ncnc(Nc3ccc(OCc4cccc(F)c4)c(Cl)c3)c2c1 [VIII-124] |  |  |  | 14 | 40 | 38 |
| CC#C/C(=N\OC[C@@H](COC)NC)c1ccc2ncnc(Nc3ccc(OCc4ccccn4)c(Cl)c3)c2c1 [VIII-131] |  |  |  | 14 | 5.8 | 4.4 |
| CC#C/C(=N\OCCNCCOC(N)=O)c1ccc2ncnc(Nc3ccc(OCc4ccccn4)c(Cl)c3)c2c1 [VIII-135] |  |  |  | 28 | 7.6 | 8.1 |
| CC#C/C(=N\OCCNC[C@@H]1CCCO1)c1ccc2ncnc(Nc3ccc(OCc4ccccn4)c(Cl)c3)c2c1 [VIII-137] |  |  |  | 78 | 13 | 14 |
| CC#C/C(=N\OCCNC[C@H](C)CO)c1ccc2ncnc(Nc3ccc(OCc4ccccn4)c(Cl)c3)c2c1 [VIII-140] |  |  |  | 30 | 5.5 | 4.3 |
| CC#C/C(=N\OCCNC1CCN(S(C)(=O)=O)CC1)c1ccc2ncnc(Nc3ccc(OCc4ccccn4)c(Cl)c3)c2c1 [VIII-142] |  |  |  | 31 | 5.5 | 4.4 |
| CC#C/C(=N\OCCN(C)CCO)c1ccc2ncnc(Nc3ccc(OCc4ccccn4)c(Cl)c3)c2c1 [VIII-145] |  |  |  | 21 | 9.4 | 8.9 |
| CC#C/C(=N\OCCN(C)CCOC)c1ccc2ncnc(Nc3ccc(OCc4ccccn4)c(Cl)c3)c2c1 [VIII-146] |  |  |  | 45 | 12 | 10 |
| CC#C/C(=N\OCCCNC)c1ccc2ncnc(Nc3ccc(OCc4ccccn4)c(Cl)c3)c2c1 [VIII-147] |  |  |  | 25 | 13 | 13 |
| CC#C/C(=N\OCCN1CCCC1)c1ccc2ncnc(Nc3ccc(OCc4ccccn4)c(Cl)c3)c2c1 [VIII-148] |  |  |  | 26 | 6.1 | 5.8 |

Results, then the compound that gave them:

| IC50 (EGFR; [1]) [nM] | IC50 (BT-474) [nM] | IC50 (HER2; [2]) [nM] | IC50 (BT-474; Homo sapiens, BT-474, 72 h) [nM] | IC50 (EGFR; [3]) [nM] | IC50 (HER2; [3]) [nM] | SMILES |
| --- | --- | --- | --- | --- | --- | --- |
| 14 | 10 | 14 |  |  |  | CC#C/C(=N\OC[C@H]1CNCCN1)c1ccc2ncnc(Nc3ccc(OCc4cccc(F)c4)c(Cl)c3)c2c1 [VIII-105] |
| 160 |  | 148 | 16 |  |  | CC#C/C(=N\OC[C@@H]1NCCO[C@H]1C)c1ccc2ncnc(Nc3ccc(OCc4cccc(F)c4)c(Cl)c3)c2c1 [VIII-106] |
| 23 |  | 18 | 40 |  |  | CC#C/C(=N\OC[C@@H]1CNC[C@H](C)O1)c1ccc2ncnc(Nc3ccc(OCc4cccc(F)c4)c(Cl)c3)c2c1 [VIII-109] |
| 9.7 |  | 12 | 13 |  |  | CC#C/C(=N\OC[C@H]1CN(C)CCN1)c1ccc2ncnc(Nc3ccc(OCc4cccc(F)c4)c(Cl)c3)c2c1 [VIII-113] |
| 47 | 20 | 53 |  |  |  | CC#C/C(=N\OC[C@H]1CNC[C@H](C)O1)c1ccc2ncnc(Nc3ccc(OCc4cccc(F)c4)c(Cl)c3)c2c1 [VIII-117] |
| 33 |  | 29 | 32 |  |  | CNCCO/N=C(\C#CC1CC1)c1ccc2ncnc(Nc3ccc(OCc4cccc(F)c4)c(Cl)c3)c2c1 [VIII-120] |
| 17 | 10 | 18 |  |  |  | CNCCO/N=C(\C#CCO)c1ccc2ncnc(Nc3ccc(OCc4cccc(F)c4)c(Cl)c3)c2c1 [VIII-121] |
| 29 |  | 24 | 14 |  |  | OCC#C/C(=N\OCCN1CCCC1)c1ccc2ncnc(Nc3ccc(OCc4cccc(F)c4)c(Cl)c3)c2c1 [VIII-122] |
|  | 61 |  |  | 37 | 35 | CCCC#CC(=NOCCNC)c1ccc2ncnc(Nc3ccc(OCc4cccc(F)c4)c(Cl)c3)c2c1 [VIII-127] |
|  |  |  | 37 | 15 | 17 | CC#C/C(=N\OCCN1CCCC(O)C1)c1ccc2ncnc(Nc3ccc(OCc4ccccn4)c(Cl)c3)c2c1 (stereo not drawn) [VIII-128] |
|  |  |  | 12 | 7.1 | 6.3 | CC#C/C(=N\OC[C@@H](C)N)c1ccc2ncnc(Nc3ccc(OCc4ccccn4)c(Cl)c3)c2c1 [VIII-129] |
|  |  |  | 50 | 8.1 | 5.2 | CC#C/C(=N\OCCNC(C)COC)c1ccc2ncnc(Nc3ccc(OCc4ccccn4)c(Cl)c3)c2c1 (stereo not drawn) [VIII-130] |
|  |  |  | 18 | 14 | 14 | CC#C/C(=N\OCCNCCS(C)(=O)=O)c1ccc2ncnc(Nc3ccc(OCc4ccccn4)c(Cl)c3)c2c1 [VIII-132] |
|  |  |  | 43 | 8.4 | 7.1 | CC#C/C(=N\OCCNCCCN1CCCC1=O)c1ccc2ncnc(Nc3ccc(OCc4ccccn4)c(Cl)c3)c2c1 [VIII-133] |
|  |  |  | 14 | 7.1 | 7.4 | CC#C/C(=N\OCCNCCNC(C)=O)c1ccc2ncnc(Nc3ccc(OCc4ccccn4)c(Cl)c3)c2c1 [VIII-134] |
|  |  |  | 53 | 21 | 21 | CC#C/C(=N\OCCNC1CC1)c1ccc2ncnc(Nc3ccc(OCc4ccccn4)c(Cl)c3)c2c1 [VIII-136] |
|  |  |  | 32 | 5 | 3.8 | CC#C/C(=N\OCCNC[C@@H](C)CO)c1ccc2ncnc(Nc3ccc(OCc4ccccn4)c(Cl)c3)c2c1 [VIII-139] |
|  |  |  | 46 | 10 | 7.9 | CC#C/C(=N\OCCNC1CCOCC1)c1ccc2ncnc(Nc3ccc(OCc4ccccn4)c(Cl)c3)c2c1 [VIII-141] |
|  |  |  | 24 | 3.5 | 3.6 | CC#C/C(=N\OCCNCCO)c1ccc2ncnc(Nc3ccc(OCc4ccccn4)c(Cl)c3)c2c1 [VIII-143] |
|  |  |  | 28 | 13 | 14 | CC#C/C(=N\OCCN1CC[C@@H](NC(C)=O)C1)c1ccc2ncnc(Nc3ccc(OCc4ccccn4)c(Cl)c3)c2c1 [VIII-149] |
|  |  |  | 30 | 12 | 11 | CC#C/C(=N\OCCN1CCC[C@@H]1CO)c1ccc2ncnc(Nc3ccc(OCc4ccccn4)c(Cl)c3)c2c1 [VIII-150] |

Source: US8202879B2, “Quinazoline derivatives having tyrosine kinase inhibitory activity” (Shionogi & Co., Ltd., priority 2005, dated 2012)
